Data from patent publication US20260158028A1, “USE OF QUINOLINONE DERIVATIVE IN TREATMENT OF IMMUNE THROMBOCYTOPENIA” (CHIA TAI TIANQING PHARMACEUTICAL GROUP CO., LTD., priority 2021, published 2026).

System: adult subjects with persistent or chronic immune thrombocytopenia
Assay: Clinical trial for immune thrombocytopenia (platelet counts, safety)
Assay type: in vivo, human
Conditions: for platelet count: 600 mg/d; for clinical efficacy in treating immune thrombocytopenia: adult persistent or chronic immune thrombocytopenia; for overall safety: tablets orally once daily on an empty stomach, 28-day cycles, 6 subjects; for percentage of subjects with at least one platelet count of ≥30×10^9/L and an increase of ≥2 times the baseline in platelet count / percentage of subjects with at least one platelet count of ≥50×10^9/L: within 12 weeks of treatment; for percentage of subjects with at least one platelet count of ≥30×10^9/L and an increase of ≥2 times the baseline in platelet count: in the absence of emergency treatment, evaluated patients
Experimental: Test drug: tablets of the compound of formula I, 50 mg/tablet or 200 mg/tablet; Administration regimen: orally taken once daily on an empty stomach, with 28 consecutive days of administration as one treatment cycle.
Neutrophil count (ANC)>1.5×10^9/L; hemoglobin (Hb)>90 g/L; • b. Total bilirubin (TBIL), alanine aminotransferase (ALT), and aspartate aminotransferase (AST)≤1.5 times the upper limit of normal (ULN); serum creatinine≤1.5×ULN, and creatinine clearance rate≥50 mL/min; • c. […] Prothrombin time (PT) is within the normal range±3 s, and activated partial thromboplastin time (APTT) is within the normal range±10 s; • e. The subject has no history of coagulation disorders other than immune thrombocytopenia. • 8) A female subject of childbearing age should agree to take contraceptive measures (such as intrauterine devices, contraceptives, or condoms) during the study and for 90 days after the study; serum pregnancy test results should be negative within 7 days before enrollment, and the subject must be a non-lactating one; a male subject should agree to take contraceptive measures during the study and for 6 months after the study.
Efficacy was evaluated according to the platelet counts, WHO bleeding scores, and emergency treatment received of the subjects. The effective rate of platelet count increase was used as a main measure of efficacy, and for evaluation criteria, reference was made to American Society of Hematology 2019 Guidelines for Immune Thrombocytopenia and Chinese Guidelines for Diagnosing and Treating Adult Primary Immune Thrombocytopenia (2020 Edition).
A total of 6 subjects were enrolled, with 3 in the 400 mg group (the dose for 2 of them was increased to 600 mg) and 3 in the 600 mg group.

[1] = 400 mg and 600 mg groups, listed as tablets of the compound of formula I
[2] = tablets orally once daily, 400 mg and 600 mg groups

Cn1c(=O)c(Nc2ccc(N3CCN(C4COC4)CC3)cn2)cc2c(F)c(-c3cc[nH]n3)ccc21 [compound of formula I] was tested, and the platelet count (Subject 1, previous third-line therapy, baseline mean 22, D 3) was 5.2e+10 L⁻¹, the platelet count (Subject 1, previous third-line therapy, baseline mean 22, D 11) was 2.2e+11 L⁻¹ and the platelet count (Subject 1, previous third-line therapy, baseline mean 22, D 18) was 7e+09 L⁻¹. For the same compound, the platelet count (Subject 1, previous third-line therapy, baseline mean 22, D 25) was 9e+09 L⁻¹, the platelet count (Subject 1, previous third-line therapy, baseline mean 22, W 5 D 1) was 8.9e+10 L⁻¹ and the platelet count (Subject 1, previous third-line therapy, baseline mean 22, W 6 D 1) was 8.4e+10 L⁻¹. For the same compound, the platelet count (Subject 1, previous third-line therapy, baseline mean 22, W 7 D 1) was 3.5e+10 L⁻¹, the platelet count (Subject 1, previous third-line therapy, baseline mean 22, W 8 D 1) was 1.31e+11 L⁻¹ and the platelet count (Subject 1, previous third-line therapy, baseline mean 22, W 9 D 1) was 2.24e+11 L⁻¹. The platelet count (Subject 1, previous third-line therapy, baseline mean 22, W 10 D 1) was 2.5e+10 L⁻¹, the platelet count (Subject 1, previous third-line therapy, baseline mean 22, W 12 D 1) was 1e+11 L⁻¹ and the platelet count (Subject 2, previous second-line therapy, baseline mean 6.5, D 3) was 1e+10 L⁻¹. It also gave a platelet count (Subject 2, previous second-line therapy, baseline mean 6.5, D 11) of 3.1e+10 L⁻¹, a platelet count (Subject 2, previous second-line therapy, baseline mean 6.5, D 18) of 3.5e+10 L⁻¹ and a platelet count (Subject 2, previous second-line therapy, baseline mean 6.5, D 25) of 2.1e+10 L⁻¹. The platelet count (Subject 3, previous first-line therapy, baseline mean 33.5, D 3) was 5.8e+10 L⁻¹, the platelet count (Subject 3, previous first-line therapy, baseline mean 33.5, D 11) was 8.3e+10 L⁻¹ and the platelet count (Subject 3, previous first-line therapy, baseline mean 33.5, D 18) was 3.4e+10 L⁻¹. The “clinical efficacy in treating immune thrombocytopenia” value was “can effectively improve the platelet count”, the “clinical efficacy in treating immune thrombocytopenia” value (listed as tablets of the compound of formula I) was “excellent clinical efficacy” and the overall safety (400 mg and 600 mg groups) was “good safety”. For the same compound, the overall safety [1] was “controllable”, the “dose-limiting toxicity (DLT) events” value [2] was “no dose-limiting toxicity (DLT) events” and the “treatment-related adverse events of grade 3 or higher” value [2] was “no treatment-related adverse events of grade 3 or higher”. The “percentage of subjects with at least one platelet count of ≥30×10^9/L and an increase of ≥2 times the baseline in platelet count” value (400 mg and 600 mg groups) was “relatively high”, the “percentage of subjects with at least one platelet count of ≥30×10^9/L and an increase of ≥2 times the baseline in platelet count” value [1] was 50% and the “percentage of subjects with at least one platelet count of ≥50×10^9/L” value (400 mg and 600 mg groups) was “relatively high”. For the same compound, the “percentage of subjects with at least one platelet count of ≥50×10^9/L” value [1] was 33.3%.
